Where “and” joins values, the source holds several entries; their conditions need not be identical. Equal values may be shown once.
Columns and labels:
Experiment in all cases: KiNativ profiling in human PBMCs
Assay type in all cases: binding
ARAF = test system: T1, ARAF; details: Lys2
T1 construct: purchased ActivX Technologies (KiNativ)
Protocol: (§1) Compounds were shipped to ActivX Technologies (San Diego, US) where LRRK2 target engagement and broad kinase profiling was performed using KiNativ™ procedures. Live cell treatment of human peripheral blood mononuclear cells (PBMCs) at two compound concentrations (1 µM and 0.1 µM) were used to evaluate and compare in vitro target engagement and kinase selectivity, respectively (see Supplementary File 1).

NEK7 = test system: T2, NEK7; details: Lys1
T2 construct: purchased ActivX Technologies (KiNativ)
Protocol: as §1

Erk5 = test system: T3, Erk5; details: Lys2
T3 construct: purchased ActivX Technologies (KiNativ)
Protocol: as §1

NDR2 = test system: T4, NDR2
T4 construct: purchased ActivX Technologies (KiNativ)
Protocol: as §1

MAP3K1 = test system: T5, MAP3K1; details: Lys2
T5 construct: purchased ActivX Technologies (KiNativ)
Protocol: as §1

ZAP70 = test system: T6, ZAP70
T6 construct: purchased ActivX Technologies (KiNativ)
Protocol: as §1

MAP3K5 = test system: T7, MAP3K5; details: Lys2
T7 construct: purchased ActivX Technologies (KiNativ)
Protocol: as §1

Wnk1,Wnk2 = details: ATP Loop
Protocol: as §1

ZAK = test system: T8, ZAK; details: Lys1
T8 construct: purchased ActivX Technologies (KiNativ)
Protocol: as §1

RSK1 domain1 = test system: T9, RSK1 domain1
T9 construct: RSK1 domain1; purchased ActivX Technologies (KiNativ)
Protocol: as §1

PIP4K2C = test system: T10, PIP4K2C; details: ATP
T10 construct: purchased ActivX Technologies (KiNativ)
Protocol: as §1

NEK4 = test system: T11, NEK4; details: Lys2
T11 construct: purchased ActivX Technologies (KiNativ)
Protocol: as §1

LYN = test system: T12, LYN
T12 construct: purchased ActivX Technologies (KiNativ)
Protocol: as §1

IKKe = test system: T13, IKKe; details: Lys1
T13 construct: purchased ActivX Technologies (KiNativ)
Protocol: as §1

LRRK2 = test system: T14, LRRK2; details: Lys2
T14 construct: purchased ActivX Technologies (KiNativ)
Protocol: as §1

GPRK6 = test system: T15, GPRK6; details: Lys2
T15 construct: purchased ActivX Technologies (KiNativ)
Protocol: as §1

MAP2K7 = test system: T16, MAP2K7; details: Lys2
T16 construct: purchased ActivX Technologies (KiNativ)
Protocol: as §1

SGK3 = test system: T17, SGK3; details: Lys2
T17 construct: purchased ActivX Technologies (KiNativ)
Protocol: as §1

MAP3K2,MAP3K3 = details: Lys2
Protocol: as §1

MLKL = test system: T18, MLKL; details: Lys1
T18 construct: purchased ActivX Technologies (KiNativ)
Protocol: as §1

STLK6 = test system: T19, STLK6; details: Lys2
T19 construct: purchased ActivX Technologies (KiNativ)
Protocol: as §1

CaMK2d = test system: T20, CaMK2d; details: Lys1
T20 construct: purchased ActivX Technologies (KiNativ)
Protocol: as §1

MLK3 = test system: T21, MLK3; details: Lys2
T21 construct: purchased ActivX Technologies (KiNativ)
Protocol: as §1

ABL,ARG = details: Activation Loop
Protocol: as §1

CaMK2g = test system: T22, CaMK2g; details: Lys1
T22 construct: purchased ActivX Technologies (KiNativ)
Protocol: as §1

PKN1 = test system: T23, PKN1; details: Lys1
T23 construct: purchased ActivX Technologies (KiNativ)
Protocol: as §1

FYN,SRC,YES = details: Activation Loop
Protocol: as §1

NEK9 = test system: T24, NEK9
T24 construct: purchased ActivX Technologies (KiNativ)
Protocol: as §1

KHS1 = test system: T25, KHS1; details: Lys1
T25 construct: purchased ActivX Technologies (KiNativ)
Protocol: as §1

CaMK1d = test system: T26, CaMK1d
T26 construct: purchased ActivX Technologies (KiNativ)
Protocol: as §1

NEK8 = test system: T27, NEK8; details: Lys2
T27 construct: purchased ActivX Technologies (KiNativ)
Protocol: as §1

PLK1 = test system: T28, PLK1; details: Lys1
T28 construct: purchased ActivX Technologies (KiNativ)
Protocol: as §1

MARK2,MARK3 = details: Lys2
Protocol: as §1

MARK2 = test system: T29, MARK2; details: Lys1
T29 construct: purchased ActivX Technologies (KiNativ)
Protocol: as §1

MAP2K1,MAP2K2 = details: Lys2
Protocol: as §1

MSK1 domain1 = test system: T30, MSK1 domain1; details: Lys2
T30 construct: MSK1 domain1; purchased ActivX Technologies (KiNativ)
Protocol: as §1

eEF2K = test system: T31, eEF2K; details: ATP
T31 construct: purchased ActivX Technologies (KiNativ)
Protocol: as §1

Cc1cccc(-c2cc(Nc3ccn(C)n3)nc3[nH]cc(C#N)c23)c1 [Lu AF58786] showed an Inhibition (ARAF; 0.1µM) of -4.9%, an Inhibition (ARAF; 1µM) of -4.5% and an Inhibition (NEK7; 0.1µM) of -17.5%. For the same compound, the Inhibition (NEK7; 1µM) was 16.7%, the Inhibition (Erk5; 0.1µM) was 2.1% and the Inhibition (Erk5; 1µM) was 10.9%. For the same compound, the Inhibition (NDR2; 0.1µM, Lys1) was -14.6%, the Inhibition (NDR2; 0.1µM, Lys2) was 10.7% and the Inhibition (NDR2; 1µM, Lys1) was -18.5%. The Inhibition (NDR2; 1µM, Lys2) was 1.3%, the Inhibition (MAP3K1; 0.1µM) was 9.1% and the Inhibition (MAP3K1; 1µM) was 0.247%. The Inhibition (ZAP70; 0.1µM, Activation Loop) was 14.7%, the Inhibition (ZAP70; 0.1µM, Lys1) was 4.6% and the Inhibition (ZAP70; 1µM, Activation Loop) was 7.0%. The Inhibition (ZAP70; 1µM, Lys1) was 7.9%, the Inhibition (MAP3K5; 0.1µM) was 4.3% and the Inhibition (MAP3K5; 1µM) was -3.2%. It also gave an Inhibition (Wnk1,Wnk2; 0.1µM) of 12.8%, an Inhibition (Wnk1,Wnk2; 1µM) of 3.9% and an Inhibition (ZAK; 0.1µM) of 18.8%. It also gave an Inhibition (ZAK; 1µM) of 11.6%, an Inhibition (RSK1 domain1; 0.1µM, Activation Loop) of 8.7% and an Inhibition (RSK1 domain1; 0.1µM, Lys2) of -0.654%. The Inhibition (RSK1 domain1; 1µM, Activation Loop) was 18.4%, the Inhibition (RSK1 domain1; 1µM, Lys2) was 12.8% and the Inhibition (PIP4K2C; 0.1µM) was 19.6%. The Inhibition (PIP4K2C; 1µM) was 31.1%, the Inhibition (NEK4; 0.1µM) was -32.0% and the Inhibition (NEK4; 1µM) was -14.9%. It also gave an Inhibition (LYN; 0.1µM, Activation Loop) of -18.7%, an Inhibition (LYN; 0.1µM, Lys1) of -21.4% and an Inhibition (LYN; 1µM, Activation Loop) of 1.0%. For the same compound, the Inhibition (LYN; 1µM, Lys1) was -4.5%, the Inhibition (IKKe; 0.1µM) was 8.3% and the Inhibition (IKKe; 1µM) was -0.117%. For the same compound, the Inhibition (LRRK2; 0.1 µM) was 83% and 83.4%, the Inhibition (LRRK2; 1 µM) was 93% and 93.4% and the Inhibition (GPRK6; 0.1µM) was -65.0%. For the same compound, the Inhibition (GPRK6; 1µM) was -34.1%, the Inhibition (MAP2K7; 0.1µM) was 18.1% and the Inhibition (MAP2K7; 1µM) was -7.3%. For the same compound, the Inhibition (SGK3; 0.1µM) was -8.9%, the Inhibition (SGK3; 1µM) was 13.9% and the Inhibition (MAP3K2,MAP3K3; 0.1µM) was 6.3%. For the same compound, the Inhibition (MAP3K2,MAP3K3; 1µM) was 0.325%, the Inhibition (MLKL; 0.1µM) was -7.9% and the Inhibition (MLKL; 1µM) was -7.5%. For the same compound, the Inhibition (STLK6; 0.1µM) was -9.8%, the Inhibition (STLK6; 1µM) was -1.6% and the Inhibition (CaMK2d; 0.1µM) was 3.9%. The Inhibition (CaMK2d; 1µM) was -3.2%, the Inhibition (MLK3; 0.1µM) was 1.5% and the Inhibition (MLK3; 1µM) was 8.8%. For the same compound, the Inhibition (ABL,ARG; 0.1µM) was -81.9%, the Inhibition (ABL,ARG; 1µM) was -7.3% and the Inhibition (CaMK2g; 0.1µM) was 3.3%. The Inhibition (CaMK2g; 1µM) was -7.2%, the Inhibition (PKN1; 0.1µM) was 18.4% and the Inhibition (PKN1; 1µM) was 13.6%. It also gave an Inhibition (FYN,SRC,YES; 0.1µM) of -6.7%, an Inhibition (FYN,SRC,YES; 1µM) of -2.5% and an Inhibition (NEK9; 0.1µM, Lys1) of 8.4%. For the same compound, the Inhibition (NEK9; 0.1µM, Lys2) was 12.6%, the Inhibition (NEK9; 1µM, Lys1) was -0.0314% and the Inhibition (NEK9; 1µM, Lys2) was -3.7%. It also gave an Inhibition (KHS1; 0.1µM) of 3.0%, an Inhibition (KHS1; 1µM) of -2.5% and an Inhibition (CaMK1d; 0.1µM, Lys1) of 11.8%. It also gave an Inhibition (CaMK1d; 0.1µM, Lys2) of -11.6%, an Inhibition (CaMK1d; 1µM, Lys1) of -4.5% and an Inhibition (CaMK1d; 1µM, Lys2) of -6.3%. For the same compound, the Inhibition (NEK8; 0.1µM) was -2.3%, the Inhibition (NEK8; 1µM) was -10.4% and the Inhibition (PLK1; 0.1µM) was -7.7%. It also gave an Inhibition (PLK1; 1µM) of -19.7%, an Inhibition (MARK2,MARK3; 0.1µM) of -38.4% and an Inhibition (MARK2,MARK3; 1µM) of -36.2%. The Inhibition (MARK2; 0.1µM) was -6.2%, the Inhibition (MARK2; 1µM) was -21.2% and the Inhibition (MAP2K1,MAP2K2; 0.1 µM, DVKPSNILVNSR) was 4.0%. The Inhibition (MAP2K1,MAP2K2; 1 µM, DVKPSNILVNSR) was 1.8%, the Inhibition (MAP2K1,MAP2K2; 1 µM, IMHRDVKPSNILVNSR) was 14.1% and the Inhibition (MSK1 domain1; 0.1µM) was 15.8%. The Inhibition (MSK1 domain1; 1µM) was 1.9%, the Inhibition (eEF2K; 0.1µM) was 12.2% and the Inhibition (eEF2K; 1µM) was 6.3%.
